Results as given in ChEMBL document CHEMBL5247651, “Oxadiazolopyridine Derivatives as Efficacious Mitochondrial Uncouplers in the Prevention of Diet-Induced Obesity” (J Med Chem, 2023).
Converted amounts (≈) assume the structure as drawn. The source made the active and inactive calls. The rule behind the calls is not given here.

Key:
Mus musculus [1] = assay: Anti-obesity activity in high-fat diet induced obesity C57BL/6 mouse model assessed as increase in locomotory activity at 130 mg/kg, po measured upto 4 hrs by indirect calorimetric analysis; assay type: functional, organism-based
L6 = assay: Induction of mitochondrial respiration in rat L6 cells assessed as fold increase in basal respiration at 25 uM in presence of oligomycin; assay type: functional, cell-based
[2] = Drug distribution in fasted C57BL/6j mouse liver at 10 mg/kg, po measured after 2 hrs by LC-MS/MS analysis; assay type: ADME, organism-based; conditions: in vivo
[3] = mouse, in vivo, po, 10 mg/kg, 24 h
[4] = Observed apparent volume of distribution in C57BL/6 mouse at 10 mg/kg, po measured upto 24 hrs by LC/MS-MS analysis; assay type: ADME, organism-based; conditions: in vivo
Mus musculus [5] = assay: Anti-obesity activity in C57BL/6j mouse assessed as decrease in serum insulin level at 130 mg/kg per day, po administered via gavage daily measured after 3 weeks by ELISA assay; assay type: functional, organism-based
Mus musculus [6] = assay: Anti-obesity activity in high-sugar western diet induced obesity C57BL/6j mouse model assessed as food consumption at 130 mg/kg per day, po administered for 14 days ( Rvb = 2.5 +/- 0.5 g/day per mouse); assay type: functional; conditions: time 14 day
[7] = Drug distribution in fasted C57BL/6j mouse white adipose tissue at 10 mg/kg, po measured after 2 hrs by LC-MS/MS analysis; assay type: ADME, organism-based; conditions: in vivo
Mus musculus [8] = assay: Anti-obesity activity in fasted C57BL/6j mouse assessed as decrease in serum glucose level at 130 mg/kg per day, po administered measured after 2 weeks; assay type: functional, organism-based
[9] = Induction of mitochondrial uncoupling activity in rat L6 cells assessed as increase in oxygen consumption rate measured after 90 mins by agilent Seahorse XF analyzer; assay type: functional, cell-based
Mus musculus [10] = assay: Anti-obesity activity in high-sugar western diet induced obesity C57BL/6j mouse model assessed as decrease in serum glucose level at 130 mg/kg per day, po administered measured after 2 weeks; assay type: functional, organism-based
[11] = Apparent permeability across basolateral to apical side in human Caco-2 cells; assay type: ADME, cell-based
[12] = Solubility of compound at pH 7.4; assay type: physicochemical; conditions: buffer
[13] = Apparent permeability across apical to basolateral side in human Caco-2 cells; assay type: ADME, cell-based

- Drug uptake [2]: Active
- F [3]: 75%
- Vz [4]: 0.74 L/kg
- Drug uptake [7]: Active
- EC50 [9]: 17.1 µM
- pEC50 [9]: 4.8
- Papp B→A [11]: 1.6 ×10⁻⁶ cm/s
- solubility [12]: 18.6 µM (≈ 5.92 µg/mL)
- Papp A→B [13]: 12.4 ×10⁻⁶ cm/s
SMILES: Oc1nc2nonc2cc1Nc1c(F)c(F)c(F)c(F)c1F
- Activity (Mus musculus [1]): inactive
- Activity (L6): Active
- Activity (Mus musculus [5]): Active
- Activity (Mus musculus [6]): 2.5 g/day
- Activity (Mus musculus [8]): Active
- Activity (Mus musculus [10]): Active
